According to patent US11891400B2, “Pyrazolo[1,5-a]pyrimidine-3-carboxamide derivatives useful in the treatment of psoriasis and systemic lupus erythematosus” (Eli Lilly and Company, priority 2018, dated 2024):

Experiments:
[1] = system: IFNα signaling through pSTAT1 in TF1 cells; test: Inhibition of IFNα signaling through pSTAT1 in TF1 cells; type: cell-based; conditions: Homo sapiens, TF-1, 20 min, 10 ng/ml IFNα2 for 20 minutes, AlphaLISA, geometric mean (SEM), read-out: IC50, inhibition of p-Stat1 (Tyr701)
Procedure: TF1 cells (ATCC, CL-2003) are grown in RPMI 1640 (GIBCO) supplemented with 10% dialyzed FBS, 0.1 mg/ml Ampicillin and 2 ng/mL granulocyte macrophage colony stimulating factor. TF1 cells (100 K per well) are seeded in a 96-well poly-D-lysine coated plates in serum-free DMEM and incubated overnight at 37° C. under 5% CO2. Example 1 is serially diluted in DMSO, added to the cells, and incubated at 37° C. for 1 hr. Cells are then stimulated with 10 ng/ml IFNα2 at 37° C. for 20 minutes. After removing the medium, the cells are lysed in buffer containing Halt protease and phosphatase inhibitor cocktail (Thermo Scientific #78441) at room temperature for 30 minutes. The amount of p-Stat1 (Tyr701) is quantified as light emission at 615 nm using the AlphaLISA SureFire Ultra p-Stat1 (Tyr701) assay kit (Perkin Elmer #ALSU-PST1-A50K) following the vendor's recommended protocol. Percent inhibition at each inhibitor concentration is calculated and fit to the four parameter nonlinear logistic equation using Genedata Screener® to give an IC50 for the compound of Example 1 of 0.008 μM (±0.001 μM, n=5) and for the compound of Example 2 of 0.010 μM (±0.001 μM, n=4) expressed as GeoMetric means with the standard error of the mean (SEM).

[2] = biological target: T1, TYK2 JH2 (Homo sapiens, UniProt P29597); test: Binding to TYK2 JH2 by Scintillation Proximity Assay; conditions: His-tagged TYK2 JH2, 3H-labelled ligand 50 nM, SPA; geometric mean (SEM); read-out: IC50, inhibition of radioligand binding to TYK2 JH2
T1 construct: The pseudokinase domain (JH2) of human JAK (Janus family of cytoplasmic tyrosine kinases) family tyrosine kinase 2 (TYK2); made in house
T1 sequence (P29597 589-875 limits assumed): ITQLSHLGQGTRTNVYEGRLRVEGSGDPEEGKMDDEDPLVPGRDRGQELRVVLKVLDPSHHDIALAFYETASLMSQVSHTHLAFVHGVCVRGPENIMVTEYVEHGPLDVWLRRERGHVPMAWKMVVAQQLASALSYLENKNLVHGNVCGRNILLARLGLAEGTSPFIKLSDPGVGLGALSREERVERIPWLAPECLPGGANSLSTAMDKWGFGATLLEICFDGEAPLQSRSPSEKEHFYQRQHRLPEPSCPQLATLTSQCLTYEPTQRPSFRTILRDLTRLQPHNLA
Excerpt: The pseudokinase domain (JH2) of human JAK (Janus family of cytoplasmic tyrosine kinases) family tyrosine kinase 2 (TYK2) with an N-terminal His^6 tag is expressed in baculovirus and purified by Ni-NTA affinity and size-exclusion chromatography. Yttrium (YSi) His-Tag scintillation proximity assay (SPA) beads (cat #PRNQ0096) are purchased from PerkinElmer Life Sciences. ^3H—N-[(1R)-1-[3-[8-Methyl-5-(methylamino)-8H-imidazo[4,5-d]thiazolo[5,4-b]pyridin-2-yl]phenyl]ethyl]-2-(methylsulfonyl) benzamide is synthesized by Quotient Bio with a specific activity of 63 Ci/mmol and a concentration 6.78 μM stored in ethanol (cat #TRQ41678) (See also e.g., J. S. Tokarski, et al., J. Biol. Chem., vol. 290(17), pages 11061-11074 (2015) and R. Moslin, et al., Med. Chem. Commun., vol. 8, pages 700-712 (2017)).
A 3 fold, 10 point serial dilution of Example 1 is prepared in 100% DMSO (200 nL) and transferred to a 96 well, white, clear bottom, non-binding surface assay plate (Costar 3604) using acoustic liquid handling. Control wells used to determine percent inhibition contained either DMSO (200 nL) or cold, unlabeled inhibitor (200 nL, 10 mM, 200 μM final concentration). […] After 15 minutes at room temperature, radioactivity is counted using the Trilux Microbeta.

[3] = system: IL-23 signaling (STAT3 phosphorylation) in Kit225 cells; test: IL23 pSTAT3 AlphaLISA assay; type: cell-based; conditions: 0.5 h, IL23 25 ng/ml for 30 minutes, geometric mean (SEM), read-out: relative IC50, IL23 pSTAT3
Procedure: IL2-dependent Kit225 cells expressing endogenous IL23 receptors are stably transduced with the Lenti STAT3 Reporter linked to firefly luciferase (SABiosciences CLS-6028L). These cells are used to monitor TYK2 activity by quantifying gene expression caused by STAT3 phosporylation following induction by IL23 in the presence of IL2 using AlphaLISA technology (TGR Biosciences ALSU-TST3-A50K). The cells are grown in RPMI 1640 (Gibco 22400) supplemented with 10% FBS (Invitrogen 10082), 1× Pen/Strep (Gibco 15140-122), 200 ng/ml Puromycin (Sigma P9620), and fresh 10 ng/ml recombinant human IL2 (R&D Systems 202-IL-50). For assay preparation, cells are dispensed into Biocoat black poly-d-lysine coated clear bottom 384-well plates (Becton Dickinson Bio-Coat 35-4640) in DMEM (Sigma D5796) at 300,000 cells/well and allowed to incubate overnight at 37° C. Compounds solubilized in DMSO are serially diluted 1:3 to produce a 10-point concentration response curve (final DMSO=0.1%). Cells are pre-incubated with Example 1 for 1 hour at 37° C., then stimulated with IL23 (25 ng/ml final) for 30 minutes. […] The AlphaLISA reaction is performed following the vendor's recommended protocol, and the luciferase levels are measured using an Envision plate reader (Perkin Elmer). […]

Row | Compound | IC50 [1] [nM] | IC50 [2] [nM] | IC50 [3] [nM]
1 | CCOc1ccccc1Nc1cc(NC)n2ncc(C(=O)N[C@@H]3CCN(C)C3=O)c2n1 (single isomer, unassigned) [Example 2] | 10 | 40 | 10
2 | CNc1cc(Nc2ccccc2OC)nc2c(C(=O)N[C@@H]3CCN(C)C3=O)cnn12 [Example 1, 5-(2-Methoxyanilino)-7-(methylamino)-N-[(3R)-1-methyl-2-oxo-pyrrolidin-3-yl]pyrazolo[1,5-a]pyrimidine-3-carboxamide] | 8 | 45 | 9
